Values quoted from earlier work as cited in patent publication US6552066B1, “Protein tyrosine kinase inhibitors for treating osteoarthritis” (priority 1995, dated 2003).

Key:
[1] = system: progression of osteoarthritis; settings: animals; cited from earlier work
[2] = system: bovine cartilage explant; settings: cited from earlier work

For NC1=N/C(=C2/CCNC(=O)c3[nH]ccc32)C(=O)N1 [Z-debromohymenialdisine], the progression of osteoarthritis [1] is given as “slows the progression of osteoarthritis” and the “inhibition of cartilage degradation in the bovine cartilage explant assay” value [2] is given as “inhibit cartilage degradation”.
